Laboratory results: patent US9957539B2, “Method for using hexenol glycosyl transferase” (SUNTORY HOLDINGS LIMITED, priority 2013, dated 2018)

B1: Cs_UGT_C30: Camellia sinensis glycosyltransferase, amino acid sequence SEQ ID NO: 2, expressed His-tagged in E. coli (protein, listed as Camellia sinensis)
chain: MGSRKQPHAVCVPFPAQGHINPMMQLAKLLHSRGFYITFVNTEFNHRRLLQSKGPEFLKGCADFQFESIPDGLPPSDRDATQDPPTLCIAMRDNCLDPFRVLLKKLNNNNNSIASRQVPGVTCVVSDGAMNFAMKAAEEAGIPEVQFWTASACGFMGYLHYPQLVQRGIFPFKDESFQSDGSLDTTIDWIPGMRNIRLKDMPSFIRTTDPNDILFNYLSEEVQNCLKASAIIFNTFDTLEHQVLQAIASKFHNIYTIGPLSLLSKQVIDGEFKSLNSSLWKEDTKCLQWLDTKEPNSVVYVNYGSITVMTDQHLKEFAWGLANSKHPFLWIVRPDIVMGDSAILPEHFVEETKDRGLLVSWCPQEQVLSHPSIGVFLTHCGWNSTLESICGGVPIICWPFFAEQQTNCRYACTEWGIGMEVNHDVKRNEIVALINEMLEGDKGKQMRKKALKLKKEAEEATDVGGLSYNNFDRLIKEALHYCEQY
modifications: His tag
B2: Cs_UGT85like_C1: Camellia sinensis glycosyltransferase, amino acid sequence SEQ ID NO: 4, expressed His-tagged in E. coli (protein, listed as Camellia sinensis)
chain: MAKLHFFFFPVMAQGHMIPTLDMAKLFASHGVKATIITTPLNAPYFTRSIQRTHHSISVLTLKFPAVEAGLVEGCESVDQIPSPDMLPNFLKATTMLQDPLERLLQDSRPDCLVADMFFPWATHVAAKFNIPRLVFHGTGFFTLCASENLRLYMPQASVSSDDEPFLVPNLPHKIMLTRSQLPENERCDTETGLSTMLKQVKETELTSYGVIVNSFYELEPDYADYYRNVLGRRAWHIGPVSLCNREVEDKAQRGKESAIDEVECLKWLNSKKPNSVIYVCFGSLGDFTASQLFELAMGLEASGQQFIWVVRKGKIEEDGDEKRLPEEFEERMKDKGLIIRGWAPQVLILDHESIGGFVTHCGWNSILEGVCAGVPMVTWPRFAEQFYNEKLVTEVLRIGVGVGARQWQIGAGSDCIKGETIAKAVKRVMEAGEEAEGMRTRARAAKDMAKKAVEEGGSSYSDLNALIQEMSS
modifications: His tag

test system: not listed separately; experiment: Hexenol glycosylation activity of recombinant UGT enzymes (enzyme reaction with UDP-glucose, LC-MS analysis of product); assay type: biochemical; settings: 2 mM UDP-glucose, […] sugar acceptor substrate, pH 7.5, 30° C. for 1 hour; product detected by LC-MS against reference standard
Protocol: Standard enzyme reaction conditions are as follows. […] The enzyme reaction solution (5 μl) was analyzed by LC-MS under the following conditions. LC Conditions • Column: CAPCELL PAK C18-UG120 (2.0 mm I.D.×150 mm) • Mobile phase: A: […] (m/z 261, 297, 307) Since green leaf volatiles are found in a wide range of land plants, a search was conducted for UGTs causing glycosylation of green leaf volatiles derived from other plant lines on the basis of homology with the sequence of Camellia sinensis Cs_UGT_C30.

| Molecule | glycosylation activity on cis-3-hexenol (generation of cis-3-hexenyl monoglucoside) |
| --- | --- |
| B1 | glycosylation activity on cis-3-hexenol |
| B2 | glycosylation activity on cis-3-hexenol |

test system: CsUGTC30; experiment: Specificity of CsUGTC30 for sugar acceptors (relative activity of transglucosylation); assay type: biochemical, Camellia sinensis; settings: UDP-glucose as donor; 30 minutes at 30° C.; activity on geraniol is set to 100% (FIG. 8)
Description: Standard enzyme reaction conditions are as follows.
Next, to clarify the substrate specificity of CsUGTC30, geraniol, linalool, eugenol, benzyl alcohol, 2-phenylethanol, quercetin and cyanidin were each used as a substrate to determine the relative activity of transglucosylation with the above enzyme and under the above enzyme reaction conditions.

| Molecule | relative transglucosylation activity of CsUGTC30 on the substrate (sugar acceptor) |
| --- | --- |
| O=c1c(O)c(-c2ccc(O)c(O)c2)oc2cc(O)cc(O)c12 [quercetin] | no transglycosylation activity |
| OCCc1ccccc1 [2-phenylethanol] | transglycosylation activity |
| C=CCc1ccc(O)c(OC)c1 [eugenol] | second highest activity |
| C=CC(C)(O)CCC=C(C)C (stereo not drawn) [linalool] | transglycosylation activity |
| CC(C)=CCC/C(C)=C/CO [geraniol] | highest activity |
| OCc1ccccc1 [benzyl alcohol] | second highest activity |
| CC/C=C\CCO [hexenol, cis-3-hexen-1-ol] | at the same level |
